Target: T1, full-length ATR (Homo sapiens, UniProt Q13535)
T1 construct: in the presence of 5 nM full-length ATR
Test: ATR Inhibition Assay (radioactive-phosphate incorporation)
Format: biochemical
Conditions: Ki(app); 5 nM full-length ATR, 10 μM ATP, 800 μM target peptide, 25° C.
How it was run: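 After a 10-min pre-incubation of compound with 5 nM enzyme at 25 °C, ATP was added to start the reaction (final 10 μM [γ-33P]ATP, 800 μM peptide; Tris/HCl pH 7.5, MgCl2, DTT), which ran 24 h. Incorporated 33P was captured on phosphocellulose filters, and Ki(app) was fitted by non-linear regression.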

T1 sequence (Q13535 whole entry): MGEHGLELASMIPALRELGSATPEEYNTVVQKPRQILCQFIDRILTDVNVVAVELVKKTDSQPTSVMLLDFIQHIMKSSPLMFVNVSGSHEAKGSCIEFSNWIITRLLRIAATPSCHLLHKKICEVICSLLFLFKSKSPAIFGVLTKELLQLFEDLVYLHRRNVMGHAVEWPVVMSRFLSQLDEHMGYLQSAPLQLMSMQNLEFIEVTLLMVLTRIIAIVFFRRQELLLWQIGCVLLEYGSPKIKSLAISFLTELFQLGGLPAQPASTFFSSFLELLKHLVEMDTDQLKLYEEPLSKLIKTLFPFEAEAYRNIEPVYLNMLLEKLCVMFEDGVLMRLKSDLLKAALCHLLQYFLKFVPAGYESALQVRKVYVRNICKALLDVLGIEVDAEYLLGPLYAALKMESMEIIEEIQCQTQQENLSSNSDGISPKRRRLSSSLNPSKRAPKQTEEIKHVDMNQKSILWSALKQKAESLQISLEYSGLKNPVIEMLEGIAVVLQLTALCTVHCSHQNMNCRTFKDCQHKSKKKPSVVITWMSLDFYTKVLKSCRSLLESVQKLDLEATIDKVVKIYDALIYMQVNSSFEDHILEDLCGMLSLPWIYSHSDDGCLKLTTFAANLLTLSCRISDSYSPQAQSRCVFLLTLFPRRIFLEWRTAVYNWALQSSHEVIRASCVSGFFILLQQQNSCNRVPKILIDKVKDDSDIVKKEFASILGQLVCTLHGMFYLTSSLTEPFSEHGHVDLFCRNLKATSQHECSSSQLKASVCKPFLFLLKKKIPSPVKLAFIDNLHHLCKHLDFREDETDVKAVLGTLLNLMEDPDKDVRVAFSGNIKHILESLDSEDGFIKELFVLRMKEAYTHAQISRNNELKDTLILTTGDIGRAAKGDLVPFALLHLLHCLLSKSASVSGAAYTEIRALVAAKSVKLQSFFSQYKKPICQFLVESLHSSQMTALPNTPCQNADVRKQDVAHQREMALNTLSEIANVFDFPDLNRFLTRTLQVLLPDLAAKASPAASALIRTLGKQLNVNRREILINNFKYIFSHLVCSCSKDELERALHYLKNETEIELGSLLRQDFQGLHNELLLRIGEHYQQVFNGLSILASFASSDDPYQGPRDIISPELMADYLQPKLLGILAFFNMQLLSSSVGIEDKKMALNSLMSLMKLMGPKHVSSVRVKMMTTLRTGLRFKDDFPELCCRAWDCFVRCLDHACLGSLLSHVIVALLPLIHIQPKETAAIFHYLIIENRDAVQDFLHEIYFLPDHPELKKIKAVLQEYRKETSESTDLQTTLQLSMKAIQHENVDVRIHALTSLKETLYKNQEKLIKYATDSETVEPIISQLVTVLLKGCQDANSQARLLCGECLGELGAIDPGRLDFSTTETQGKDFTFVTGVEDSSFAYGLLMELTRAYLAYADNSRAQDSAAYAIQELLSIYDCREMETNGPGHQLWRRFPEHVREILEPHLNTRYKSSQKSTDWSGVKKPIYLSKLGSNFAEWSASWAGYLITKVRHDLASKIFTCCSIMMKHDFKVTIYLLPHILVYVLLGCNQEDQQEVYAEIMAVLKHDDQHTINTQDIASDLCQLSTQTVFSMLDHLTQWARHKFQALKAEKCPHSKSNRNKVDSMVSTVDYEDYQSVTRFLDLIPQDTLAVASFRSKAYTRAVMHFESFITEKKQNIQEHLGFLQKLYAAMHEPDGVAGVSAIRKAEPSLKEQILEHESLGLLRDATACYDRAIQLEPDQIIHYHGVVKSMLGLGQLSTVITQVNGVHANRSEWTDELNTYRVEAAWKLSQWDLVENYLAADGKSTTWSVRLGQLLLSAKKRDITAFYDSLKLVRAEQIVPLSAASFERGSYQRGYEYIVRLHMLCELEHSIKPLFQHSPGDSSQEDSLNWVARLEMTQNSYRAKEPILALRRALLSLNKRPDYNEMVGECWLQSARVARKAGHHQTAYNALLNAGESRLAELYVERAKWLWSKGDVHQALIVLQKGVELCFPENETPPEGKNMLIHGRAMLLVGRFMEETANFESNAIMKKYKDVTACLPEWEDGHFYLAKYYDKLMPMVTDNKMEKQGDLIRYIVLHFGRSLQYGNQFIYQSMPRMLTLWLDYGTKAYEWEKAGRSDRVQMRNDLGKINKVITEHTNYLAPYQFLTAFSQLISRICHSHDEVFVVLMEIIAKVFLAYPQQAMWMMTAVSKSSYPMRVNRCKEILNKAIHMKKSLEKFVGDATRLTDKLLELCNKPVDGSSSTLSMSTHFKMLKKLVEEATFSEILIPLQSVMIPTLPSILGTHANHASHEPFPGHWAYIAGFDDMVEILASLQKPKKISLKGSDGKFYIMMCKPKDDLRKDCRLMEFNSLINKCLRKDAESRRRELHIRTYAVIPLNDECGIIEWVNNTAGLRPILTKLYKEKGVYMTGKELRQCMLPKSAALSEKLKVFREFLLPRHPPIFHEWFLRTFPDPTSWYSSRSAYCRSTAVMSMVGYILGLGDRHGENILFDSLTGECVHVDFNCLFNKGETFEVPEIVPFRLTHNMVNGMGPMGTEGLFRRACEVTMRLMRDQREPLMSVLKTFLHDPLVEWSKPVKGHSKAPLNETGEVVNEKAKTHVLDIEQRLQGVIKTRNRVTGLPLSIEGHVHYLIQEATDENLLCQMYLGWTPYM

| SMILES | Ki |
| --- | --- |
| CCOC(=O)N1CCN(c2cnc(N)c(C(=O)Nc3ccccn3)n2)CC1 [Compound I-113, ethyl 4-(5-amino-6-(pyridin-2-ylcarbamoyl)pyrazin-2-yl)piperazine-1-carboxylate] | 1 to 10 µM |
| Cc1ccc2nc(-c3nc(N4CCN(c5ccccc5C#N)CC4)cnc3N)[nH]c2c1 [Compound I-50, 2-(4-(5-amino-6-(6-methyl-1H-benzo[d]imidazol-2-yl)pyrazin-2-yl)piperazin-1-yl)benzonitrile] | 1 to 10 µM |
| CCS(=O)(=O)N1CC2CN(c3cnc(N)c(-c4nnc(-c5ccccc5)o4)n3)CC2C1 (centres unmarked) [Compound I-305, 5-(2-ethylsulfonyl-1,3,3a,4,6,6a-hexahydropyrrolo[3,4-c]pyrrol-5-yl)-3-(5-phenyl-1,3,4-oxadiazol-2-yl)pyrazin-2-amine] | 0.1 to 1 µM |
| Nc1ncc(N2CCN(S(=O)(=O)Cc3ccccc3)CC2)nc1-c1nc2ccccc2[nH]1 [Compound I-106, 3-(1H-benzo[d]imidazol-2-yl)-5-(4-(benzylsulfonyl)piperazin-1-yl)pyrazin-2-amine] | 0.1 to 1 µM |
| CCC(=O)N1CCC2(CCN(c3cnc(N)c(-c4nnc(-c5ccc(CNC)cc5)o4)n3)C2)C1 (centres unmarked) [Compound I-342, 1-(7-(5-Amino-6-(5-(4-((methylamino)methyl)phenyl)-1,3,4-oxadiazol-2-yl)pyrazin-2-yl)-2,7-diazaspiro[4.4]nonan-2-yl)propan-1-one] | 0.1 to 1 µM |
| COc1cccc(N2CCN(c3cnc(N)c(-c4nc5ccc(C)cc5[nH]4)n3)CC2)c1 [Compound I-48, 5-(4-(3-methoxyphenyl)piperazin-1-yl)-3-(6-methyl-1H-benzo[d]imidazol-2-yl)pyrazin-2-amine] | 0.1 to 1 µM |

The next lines start with the values.

| Ki | SMILES |
| --- | --- |
| 0.1 to 1 µM | CC(=O)N1CCN(c2cnc(N)c(-c3nc4ccc(C)cc4[nH]3)n2)CC1 [Compound I-10, 1-(4-(5-amino-6-(6-methyl-1H-benzo[d]imidazol-2-yl)pyrazin-2-yl)piperazin-1-yl)ethanone] |
| 0.1 to 1 µM | CCC(=O)NC1CC[C@H]2CN(c3cnc(N)c(-c4nnc(-c5ccc(CNC)cc5)o4)n3)C[C@@H]12 (stereo partly drawn) [Compound I-355, N-((3aS,6aR)-2-(5-Amino-6-(5-(4-((methylamino)methyl)phenyl)-1,3,4-oxadiazol-2-yl)pyrazin-2-yl)octahydrocyclopenta[c]pyrrol-4-yl)propionamide] |
| 0.1 to 1 µM | Nc1ncc(N2CCN(C(=O)C3CCCC3)CC2)nc1-c1nnc(-c2ccccc2)o1 [Compound I-194, (4-(5-amino-6-(5-phenyl-1,3,4-oxadiazol-2-yl)pyrazin-2-yl)piperazin-1-yl)(cyclopentyl)methanone] |
| 0.1 to 1 µM | Nc1ncc(N2CCN(S(=O)(=O)c3ccsc3)CC2)nc1C(=O)Nc1ccccn1 [Compound I-117, 3-amino-N-(pyridin-2-yl)-6-(4-(thiophen-3-ylsulfonyl)piperazin-1-yl)pyrazine-2-carboxamide] |
| 0.1 to 1 µM | CC(C)C(=O)N1CCN(c2cnc(N)c(-c3nnc(-c4ccccc4)o3)n2)CC1 [Compound I-190, 1-(4-(5-amino-6-(5-phenyl-1,3,4-oxadiazol-2-yl)pyrazin-2-yl)piperazin-1-yl)-2-methylpropan-1-one] |
| 0.1 to 1 µM | COCCOC(=O)N1CC=C(c2cnc(N)c(-c3nc4ccccc4[nH]3)n2)CC1 [Compound I-243, 2-methoxyethyl 4-(5-amino-6-(1H-benzo[d]imidazol-2-yl)pyrazin-2-yl)-5,6-dihydropyridine-1(2H)-carboxylate] |
| 0.1 to 1 µM | Nc1ncc(C2=CCN(C(=O)OCc3ccccc3)CC2)nc1-c1nc2ccccc2[nH]1 [Compound I-261, benzyl 4-(5-amino-6-(1H-benzo[d]imidazol-2-yl)pyrazin-2-yl)-5,6-dihydropyridine-1(2H)-carboxylate] |
| < 0.1 µM | Nc1ncc(N2C[C@@H]3CCC(O)[C@@H]3C2)nc1-c1nnc(-c2ccccc2)o1 (stereo in doubt) [Compound I-318, (3aR,6aS)-2-[5-Amino-6-(5-phenyl-1,3,4-oxadiazol-2-yl)pyrazin-2-yl]-3,3a,4,5,6,6a-hexahydro-1H-cyclopenta[c]pyrrol-6-ol] |

— patent publication US8410112B2, “Compounds useful as inhibitors of ATR kinase” (Vertex Pharmaceuticals Incorporated, priority 2008, dated 2013)
